Where a name gives a salt, the structure may show the parent alone. Ends that are not written are not given here.
Legend:
[1] = system: fibroblasts; test: Lactate dehydrogenase (LDH) assay; assay type: cell-based; settings: 48 h, 1% FBS, LDH release relative to 1% Triton X-100, triplicate, Fig. 8a
[2] = system: erythrocytes; test: Hemolysis assay; assay type: cell-based; settings: 5% erythrocytes in PBS pH 7.4, 1 h, 37 °C, peptides 60 or 120 μM, % of 2% Triton X-100, triplicate, Fig. 8b
Protocol: EDTA-blood was centrifuged at 800 g for 10 min, whereafter plasma and buffy coat were removed. The erythrocytes were washed three times and resuspended to 5% in PBS, pH 7.4. The cells were then incubated with end-over-end rotation for 1 h at 37 °C in the presence of peptides (60 or 120 μM). 2% Triton X-100 (Sigma-Aldrich, St. Louis, USA) served as positive control. The samples were then centrifuged at 800 g for 10 min. The absorbance of hemoglobin release was measured at 540 nm and is expressed as % of Triton X-100 induced hemolysis. Results given represent mean values from triplicate measurements.

[3] = system: tumor cells; parameters: method as in PMID 20876209, PMID 20406839; settings: cited from earlier work
Source text: However, since it is taken up by tumor cells through passive diffusion, the overall response rate of doxorubicin is only about 30%[51][52].

| Compound | Concentration up to which no significant toxicity is seen (LDH release) [1] | Concentration up to which hemolysis is very low, at the background level of the negative control [2] | overall response rate [3] |
| --- | --- | --- | --- |
| GRRPRPRPRP [GRR10] | at least 50 μM | at least 120 μM | – |
| GRRPRPRPRPWWWW [GRR10W4] | at least 50 μM | at least 120 μM | – |
| COc1cccc2c1C(=O)c1c(O)c3c(c(O)c1C2=O)C[C@@](O)(C(=O)CO)C[C@@H]3O[C@H]1C[C@H](N)[C@H](O)[C@H](C)O1 [doxorubicin, Doxorubicin hydrochloride] | – | – | about 30% |
